According to ChEMBL document CHEMBL3991601, “The target landscape of clinical kinase drugs” (Science, 2017):
The source made the active and inactive calls. Unless noted, the calls are words filed in the database; no cut-off is given here.

Legend:
[1] = biological target: Dual specificity tyrosine-phosphorylation-regulated kinase 1B (Homo sapiens, UniProt Q9Y463)
[2] = biological target: 5'-AMP-activated protein kinase subunit gamma-1 (Homo sapiens, UniProt P54619)
[3] = biological target: Cyclin-dependent kinase 18 (Homo sapiens, UniProt Q07002)
Chain of Cyclin-dependent kinase 18 (Q07002 whole entry): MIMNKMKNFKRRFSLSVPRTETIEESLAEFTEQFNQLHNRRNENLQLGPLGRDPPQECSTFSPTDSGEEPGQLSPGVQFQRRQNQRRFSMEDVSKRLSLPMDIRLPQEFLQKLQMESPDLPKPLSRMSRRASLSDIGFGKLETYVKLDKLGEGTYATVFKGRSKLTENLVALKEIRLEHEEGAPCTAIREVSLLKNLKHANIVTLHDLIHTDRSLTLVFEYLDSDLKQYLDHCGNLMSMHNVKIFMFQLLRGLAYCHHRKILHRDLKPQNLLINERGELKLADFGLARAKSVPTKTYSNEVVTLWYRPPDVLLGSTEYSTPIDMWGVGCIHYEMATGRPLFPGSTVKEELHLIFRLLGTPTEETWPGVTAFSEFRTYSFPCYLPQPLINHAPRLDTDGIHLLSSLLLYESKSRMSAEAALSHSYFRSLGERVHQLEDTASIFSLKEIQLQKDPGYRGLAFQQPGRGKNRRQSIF

[4] = biological target: T1, General transcription and DNA repair factor IIH helicase subunit XPD (Homo sapiens, UniProt P18074)
T1 sequence (P18074 whole entry): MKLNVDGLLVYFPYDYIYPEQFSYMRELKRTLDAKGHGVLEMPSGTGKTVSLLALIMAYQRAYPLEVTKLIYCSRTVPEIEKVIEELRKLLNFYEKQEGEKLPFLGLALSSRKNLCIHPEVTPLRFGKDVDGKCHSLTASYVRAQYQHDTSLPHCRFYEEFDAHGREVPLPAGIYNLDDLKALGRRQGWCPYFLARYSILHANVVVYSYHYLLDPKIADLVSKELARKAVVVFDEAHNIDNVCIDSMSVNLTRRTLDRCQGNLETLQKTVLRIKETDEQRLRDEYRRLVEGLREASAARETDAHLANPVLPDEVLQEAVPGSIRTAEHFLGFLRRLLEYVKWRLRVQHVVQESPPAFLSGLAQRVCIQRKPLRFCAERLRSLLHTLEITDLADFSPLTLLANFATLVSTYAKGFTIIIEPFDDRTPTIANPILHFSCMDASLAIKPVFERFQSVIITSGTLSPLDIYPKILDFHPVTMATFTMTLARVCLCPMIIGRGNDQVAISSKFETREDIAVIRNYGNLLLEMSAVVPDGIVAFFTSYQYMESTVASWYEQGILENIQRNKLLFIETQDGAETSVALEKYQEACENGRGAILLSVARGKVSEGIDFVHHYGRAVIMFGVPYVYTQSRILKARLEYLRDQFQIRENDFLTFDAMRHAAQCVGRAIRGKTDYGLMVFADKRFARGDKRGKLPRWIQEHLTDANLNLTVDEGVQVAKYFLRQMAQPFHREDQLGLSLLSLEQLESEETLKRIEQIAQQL

[5] = biological target: Eukaryotic peptide chain release factor GTP-binding subunit ERF3B (Homo sapiens, UniProt Q8IYD1)
Chain of Eukaryotic peptide chain release factor GTP-binding subunit ERF3B (Q8IYD1 whole entry): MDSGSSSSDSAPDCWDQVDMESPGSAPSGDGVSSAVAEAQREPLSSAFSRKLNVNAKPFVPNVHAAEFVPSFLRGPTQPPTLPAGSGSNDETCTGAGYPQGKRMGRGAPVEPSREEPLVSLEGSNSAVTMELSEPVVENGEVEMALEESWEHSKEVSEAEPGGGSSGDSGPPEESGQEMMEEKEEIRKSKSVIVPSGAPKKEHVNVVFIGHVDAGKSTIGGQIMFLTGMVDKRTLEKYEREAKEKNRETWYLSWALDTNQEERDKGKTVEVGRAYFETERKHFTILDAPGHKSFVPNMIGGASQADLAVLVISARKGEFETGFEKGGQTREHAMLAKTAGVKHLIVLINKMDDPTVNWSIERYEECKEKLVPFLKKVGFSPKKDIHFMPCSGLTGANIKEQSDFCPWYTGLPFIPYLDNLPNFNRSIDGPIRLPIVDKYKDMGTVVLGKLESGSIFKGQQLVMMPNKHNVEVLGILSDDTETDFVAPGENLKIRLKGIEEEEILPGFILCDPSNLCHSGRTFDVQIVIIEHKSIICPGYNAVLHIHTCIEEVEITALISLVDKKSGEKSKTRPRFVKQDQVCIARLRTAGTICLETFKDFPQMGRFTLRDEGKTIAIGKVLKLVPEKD

[6] = biological target: T2, Uncharacterized protein FLJ45252 (Homo sapiens, UniProt Q6ZSR9)
T2 sequence (Q6ZSR9 whole entry): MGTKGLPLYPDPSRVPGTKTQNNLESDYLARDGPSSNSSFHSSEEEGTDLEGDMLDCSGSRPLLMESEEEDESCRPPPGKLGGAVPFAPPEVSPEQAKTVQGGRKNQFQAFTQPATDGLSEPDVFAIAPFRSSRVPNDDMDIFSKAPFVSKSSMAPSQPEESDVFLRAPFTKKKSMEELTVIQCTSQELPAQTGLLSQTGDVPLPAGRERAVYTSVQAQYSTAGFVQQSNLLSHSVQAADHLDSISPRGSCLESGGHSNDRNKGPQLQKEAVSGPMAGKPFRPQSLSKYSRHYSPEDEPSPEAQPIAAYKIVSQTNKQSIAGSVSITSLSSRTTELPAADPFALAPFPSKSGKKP

[7] = biological target: Mast/stem cell growth factor receptor Kit (Homo sapiens, UniProt P10721)
Chain of Mast/stem cell growth factor receptor Kit (P10721 whole entry): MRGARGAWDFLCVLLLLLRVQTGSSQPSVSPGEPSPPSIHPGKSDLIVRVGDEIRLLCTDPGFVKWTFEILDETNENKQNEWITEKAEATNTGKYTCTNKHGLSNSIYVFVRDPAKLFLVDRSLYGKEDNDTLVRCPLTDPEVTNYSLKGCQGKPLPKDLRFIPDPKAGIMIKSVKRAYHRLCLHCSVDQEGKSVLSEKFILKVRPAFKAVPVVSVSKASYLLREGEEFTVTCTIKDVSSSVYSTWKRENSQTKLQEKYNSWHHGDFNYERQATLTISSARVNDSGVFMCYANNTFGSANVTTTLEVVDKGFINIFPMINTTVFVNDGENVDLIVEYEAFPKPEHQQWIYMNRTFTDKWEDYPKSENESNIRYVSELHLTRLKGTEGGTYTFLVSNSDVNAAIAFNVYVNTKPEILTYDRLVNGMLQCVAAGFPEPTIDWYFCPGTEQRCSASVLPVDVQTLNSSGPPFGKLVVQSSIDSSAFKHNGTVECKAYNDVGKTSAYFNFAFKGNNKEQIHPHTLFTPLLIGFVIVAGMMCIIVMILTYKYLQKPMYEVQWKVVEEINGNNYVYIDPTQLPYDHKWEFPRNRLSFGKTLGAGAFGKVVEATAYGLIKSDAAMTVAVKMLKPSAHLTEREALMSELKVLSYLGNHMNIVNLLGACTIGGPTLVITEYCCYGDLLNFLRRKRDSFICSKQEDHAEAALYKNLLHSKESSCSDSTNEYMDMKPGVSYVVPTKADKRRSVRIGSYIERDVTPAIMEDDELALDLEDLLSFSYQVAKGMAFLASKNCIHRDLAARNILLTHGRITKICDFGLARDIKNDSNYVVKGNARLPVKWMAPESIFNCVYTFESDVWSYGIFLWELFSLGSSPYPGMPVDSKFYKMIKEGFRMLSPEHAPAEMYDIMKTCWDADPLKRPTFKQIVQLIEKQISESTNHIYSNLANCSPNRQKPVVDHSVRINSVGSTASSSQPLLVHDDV

[8] = biological target: 5'-AMP-activated protein kinase subunit gamma-2 (Homo sapiens, UniProt Q9UGJ0)
Chain of 5'-AMP-activated protein kinase subunit gamma-2 (Q9UGJ0 whole entry): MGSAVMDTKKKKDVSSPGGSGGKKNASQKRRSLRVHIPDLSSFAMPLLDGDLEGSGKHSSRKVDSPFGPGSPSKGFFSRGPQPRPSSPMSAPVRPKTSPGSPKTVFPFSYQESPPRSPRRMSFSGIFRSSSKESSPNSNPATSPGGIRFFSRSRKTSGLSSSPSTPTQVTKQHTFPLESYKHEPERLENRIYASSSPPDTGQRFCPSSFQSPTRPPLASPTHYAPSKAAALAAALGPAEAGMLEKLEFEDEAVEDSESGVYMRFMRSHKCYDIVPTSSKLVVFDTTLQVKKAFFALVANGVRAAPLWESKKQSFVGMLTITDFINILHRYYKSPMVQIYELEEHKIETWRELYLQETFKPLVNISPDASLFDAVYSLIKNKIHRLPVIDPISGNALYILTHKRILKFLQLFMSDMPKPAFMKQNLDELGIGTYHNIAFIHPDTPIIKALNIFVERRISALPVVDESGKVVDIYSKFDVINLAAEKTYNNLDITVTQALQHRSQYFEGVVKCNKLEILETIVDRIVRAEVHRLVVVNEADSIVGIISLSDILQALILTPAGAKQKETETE

[9] = biological target: Ras-related C3 botulinum toxin substrate 1 (Homo sapiens, UniProt P63000)
[10] = biological target: ALK tyrosine kinase receptor (Homo sapiens, UniProt Q9UM73); assay type: subcellular, K-562, COLO 205, SK-N-BE(2) and MV-4-11, Cell lysate; details: read-out: Kd apparent
Chain of ALK tyrosine kinase receptor (Q9UM73 whole entry): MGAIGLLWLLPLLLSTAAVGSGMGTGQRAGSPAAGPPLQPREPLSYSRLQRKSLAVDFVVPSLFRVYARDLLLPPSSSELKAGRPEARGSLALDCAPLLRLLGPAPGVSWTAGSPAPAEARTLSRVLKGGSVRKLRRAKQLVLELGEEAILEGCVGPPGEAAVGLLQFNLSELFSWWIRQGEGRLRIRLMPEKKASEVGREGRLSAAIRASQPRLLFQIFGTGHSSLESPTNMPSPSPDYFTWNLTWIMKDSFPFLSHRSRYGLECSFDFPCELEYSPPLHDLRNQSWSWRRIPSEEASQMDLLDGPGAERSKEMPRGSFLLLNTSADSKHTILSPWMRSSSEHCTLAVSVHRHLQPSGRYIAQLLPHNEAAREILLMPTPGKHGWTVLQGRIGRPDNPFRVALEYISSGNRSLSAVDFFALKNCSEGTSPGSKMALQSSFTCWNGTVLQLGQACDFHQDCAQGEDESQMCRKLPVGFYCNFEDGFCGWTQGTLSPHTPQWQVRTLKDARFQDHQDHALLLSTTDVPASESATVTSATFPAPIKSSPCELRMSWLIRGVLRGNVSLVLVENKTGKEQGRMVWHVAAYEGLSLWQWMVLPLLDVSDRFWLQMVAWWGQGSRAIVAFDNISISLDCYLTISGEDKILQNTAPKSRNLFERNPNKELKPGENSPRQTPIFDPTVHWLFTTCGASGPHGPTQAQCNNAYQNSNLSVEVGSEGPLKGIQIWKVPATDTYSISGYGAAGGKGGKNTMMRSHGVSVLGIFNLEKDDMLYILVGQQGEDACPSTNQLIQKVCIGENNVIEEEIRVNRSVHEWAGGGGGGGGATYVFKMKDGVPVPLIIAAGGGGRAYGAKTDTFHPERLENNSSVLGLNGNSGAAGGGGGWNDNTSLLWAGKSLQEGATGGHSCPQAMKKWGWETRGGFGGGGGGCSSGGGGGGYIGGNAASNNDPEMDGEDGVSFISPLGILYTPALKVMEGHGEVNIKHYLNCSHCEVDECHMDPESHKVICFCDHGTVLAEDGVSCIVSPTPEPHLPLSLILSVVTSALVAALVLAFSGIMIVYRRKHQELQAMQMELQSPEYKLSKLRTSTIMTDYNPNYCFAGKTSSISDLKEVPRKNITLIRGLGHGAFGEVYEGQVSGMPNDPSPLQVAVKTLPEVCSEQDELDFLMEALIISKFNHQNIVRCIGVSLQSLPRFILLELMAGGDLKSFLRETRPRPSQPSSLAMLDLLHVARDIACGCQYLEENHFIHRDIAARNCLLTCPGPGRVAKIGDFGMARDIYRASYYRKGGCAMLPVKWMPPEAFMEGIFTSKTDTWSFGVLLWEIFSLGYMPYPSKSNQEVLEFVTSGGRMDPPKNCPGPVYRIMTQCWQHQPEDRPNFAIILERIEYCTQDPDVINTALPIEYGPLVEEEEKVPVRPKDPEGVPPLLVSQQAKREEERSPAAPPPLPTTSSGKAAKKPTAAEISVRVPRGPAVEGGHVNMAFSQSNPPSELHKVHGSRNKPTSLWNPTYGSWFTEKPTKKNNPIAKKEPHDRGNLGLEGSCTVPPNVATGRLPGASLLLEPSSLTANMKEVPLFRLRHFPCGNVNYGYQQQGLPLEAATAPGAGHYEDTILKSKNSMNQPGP

Chain of 5'-AMP-activated protein kinase subunit gamma-1 (P54619 whole entry): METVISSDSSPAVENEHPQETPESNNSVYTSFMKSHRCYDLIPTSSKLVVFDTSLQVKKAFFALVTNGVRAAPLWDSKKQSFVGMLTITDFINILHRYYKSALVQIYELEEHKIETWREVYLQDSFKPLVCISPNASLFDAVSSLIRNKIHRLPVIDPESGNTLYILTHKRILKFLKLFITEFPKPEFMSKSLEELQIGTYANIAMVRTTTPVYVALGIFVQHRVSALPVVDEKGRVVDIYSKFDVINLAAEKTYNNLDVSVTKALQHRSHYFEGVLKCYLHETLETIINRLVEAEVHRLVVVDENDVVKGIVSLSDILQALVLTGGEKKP

Row | Kd [1] | Kd [3] | Kd [5] | Kd [7] | Structure (SMILES) | Kd [2] | Kd [4] | Kd [6] | Kd [8] | Kd [9] | Kd [10]
1 | > 30 µM (inactive) | > 30 µM (inactive) | > 30 µM (inactive) | > 30 µM (inactive) | COc1c(OCCCN2CCOCC2)ccc2c1N=C(NC(=O)c1cnc(N)nc1)N1CCN=C21 [COPANLISIB] | > 30 µM (inactive) | > 30 µM (inactive) | > 30 µM (inactive) | > 30 µM (inactive) | – | –
2 | – | – | – | – | O=C(Nc1nc2cccc(-c3ccc(CN4CCS(=O)(=O)CC4)cc3)n2n1)C1CC1 [FILGOTINIB] | > 30 µM (inactive) | > 30 µM (inactive) | 4.38 µM (active) | > 30 µM (inactive) | > 30 µM (inactive) | > 30 µM (inactive)
